Counter-ions that a name gives are not always drawn.

T1 sequence (P27487 whole entry): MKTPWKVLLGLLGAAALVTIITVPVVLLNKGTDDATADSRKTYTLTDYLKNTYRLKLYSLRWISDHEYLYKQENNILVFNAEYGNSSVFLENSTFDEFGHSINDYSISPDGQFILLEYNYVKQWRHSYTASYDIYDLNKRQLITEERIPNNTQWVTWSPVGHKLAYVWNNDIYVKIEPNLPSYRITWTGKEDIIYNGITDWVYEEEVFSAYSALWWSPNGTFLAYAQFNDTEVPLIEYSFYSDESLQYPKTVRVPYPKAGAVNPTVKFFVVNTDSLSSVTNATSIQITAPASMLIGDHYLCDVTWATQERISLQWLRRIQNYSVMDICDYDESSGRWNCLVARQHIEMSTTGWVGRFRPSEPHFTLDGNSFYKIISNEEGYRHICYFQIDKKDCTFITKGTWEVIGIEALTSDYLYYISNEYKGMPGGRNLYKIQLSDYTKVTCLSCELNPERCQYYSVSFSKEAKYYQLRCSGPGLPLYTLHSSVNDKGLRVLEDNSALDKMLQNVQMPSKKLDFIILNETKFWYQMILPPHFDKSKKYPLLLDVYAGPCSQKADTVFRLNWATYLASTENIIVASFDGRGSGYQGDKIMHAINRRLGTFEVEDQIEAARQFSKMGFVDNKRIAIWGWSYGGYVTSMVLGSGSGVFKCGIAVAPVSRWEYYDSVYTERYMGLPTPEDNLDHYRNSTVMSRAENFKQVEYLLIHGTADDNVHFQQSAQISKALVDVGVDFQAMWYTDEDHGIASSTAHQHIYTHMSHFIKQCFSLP

The first data set addresses T1, DPP-IV (Homo sapiens, UniProt P27487).
T1 construct: an extract of the human colon carcinoma cell line Caco-2 is used as the DPP IV source; host or cells: Caco-2 (differentiated to induce DPP-IV expression), Nonidet-P40 solubilised extract
Put plainly: DPP-IV assay with extract of Caco-2 cells as DPP IV source. It counts as biochemical. Particulars: extract of human colon carcinoma cell line Caco-2 as DPP IV source, substrate AFC 100 μM, 60 minutes, ambient temperature; read-out: DPP IV inhibition IC50. As for the experimental part: This cell line was obtained from the American Type Culture Collection (ATCC HTB 37). […] The cell extract was obtained from cells solubilised in a buffer (10 mM Tris HCl, 0.15 M NaCl, 0.04 t.i.u. aprotinin, 0.5% Nonidet-P40, pH 8.0) by centrifugation at 35,000 g for 30 minutes at 4° C. (to remove cell debris).
The DPP-IV assay was carried out as follows:
50 μl of substrate solution (AFC; AFC is amido-4-trifluoromethylcoumarin), final concentration 100 μM, were placed in black microtitre plates. 20 μl of assay buffer (final concentrations 50 mM Tris HCl pH 7.8, 50 mM NaCl, 1% DMSO) was pipetted in. The reaction was started by the addition of 30 μl of solubilised Caco-2 protein (final concentration 0.14 μg of protein per well). The test substances under investigation were typically added prediluted to 20 μl, while the volume of assay buffer was then reduced accordingly. The reaction was carried out at ambient temperature, the incubation period was 60 minutes. […] Dummy values (corresponding to 0% activity) were obtained in mixtures with no Caco-2 protein (volume replaced by assay buffer), control values (corresponding to 100% activity) were obtained in mixtures without any added substance.
As usually defined, the IC50 is the concentration needed to halve the response being measured. Turning to `Cn1c(=O)c2c(nc(N3CCCC(N)C3)n2Cc2ccccc2)n(CCc2ccccc2)c1=O` (stereo not shown) [1(70), 1-methyl-3-(2-phenyl-ethyl)-7-benzyl-8-(3-amino-piperidin-1-yl)-xanthine], the IC50 was determined as 32 nM.

Turning to `CC(C)=CCn1c(N2CCCC(N)C2)nc2c1c(=O)[nH]c(=O)n2C` (stereo not shown) [1(15), 3-methyl-7-(3-methyl-2-buten-1-yl)-8-(3-amino-piperidin-1-yl)-xanthine], the IC50 worked out at 624 nM.

For the compound `CC(C)=CCn1c(N(C)CCN)nc2c1c(=O)n(C)c(=O)n2C` [1(35), 1,3-dimethyl-7-(3-methyl-2-buten-1-yl)-8-[N-(2-aminoethyl)-methylamino]-xanthine], the IC50 was 95 nM.

In the case of `Cn1c(=O)c2c(nc(N3CCCC(N)C3)n2Cc2ccccc2C#N)n(C)c1=O` (stereo not shown) [1(121), 1,3-dimethyl-7-(2-cyano-benzyl)-8-(3-amino-piperidin-1-yl)-xanthine], the IC50 is 10 nM.

Turning to `C=CCn1c(=O)c2c(nc(N3CCCC(N)C3)n2CC=C(C)C)n(C)c1=O` (stereo not shown) [1(21), 1-(2-propen-1-yl)-3-methyl-7-(3-methyl-2-buten-1-yl)-8-(3-amino-piperidin-1-yl)-xanthine], the IC50 was determined as 124 nM.

Tested on in another data set: not given
Test: not given
Settings: not given
Broadly, the melting point is the temperature, or range, at which the solid turns liquid. `CC(C)=CCn1c(N2CCCC(N)C2)nc2c1c(=O)n(CCc1cccc(F)c1)c(=O)n2C` (stereo not shown) [Example 1(98), 1-[2-(3-fluoro-phenyl)-ethyl]-3-methyl-7-(3-methyl-2-buten-1-yl)-8-(3-amino-piperidin-1-yl)-xanthine] yielded a melting point of 126.8 to 127.5 °C.

In turn, `C#CCCn1c(=O)c2c(nc(N3CCCC(N)C3)n2CC=C(C)C)n(C)c1=O` (stereo not shown) [Example 1(65), 1-(3-butyn-1-yl)-3-methyl-7-(3-methyl-2-buten-1-yl)-8-(3-amino-piperidin-1-yl)-xanthine] showed a melting point of 150 to 152 °C.

`CC(C)=CCn1c(N2CCCC(N)C2)nc2c1c(=O)n(CCn1cccc1)c(=O)n2C` (stereo not shown) [Example 1(61), 1-[2-(pyrrol-1-yl)-ethyl]-3-methyl-7-(3-methyl-2-buten-1-yl)-8-(3-amino-piperidin-1-yl)-xanthine] showed a melting point of 136 to 138.6 °C.

Compound `C=CCCn1c(=O)c2c(nc(N3CCCC(N)C3)n2CC=C(C)C)n(C)c1=O` (stereo not shown) [Example 1(66), 1-(3-butene-1-yl)-3-methyl-7-(3-methyl-2-buten-1-yl)-8-(3-amino-piperidin-1-yl)-xanthine] yielded a melting point of 111 to 112.6 °C.

On to `CC(C)=CCn1c(N2CCCC(N)C2)nc2c1c(=O)n(C)c(=O)n2C(C)C` (stereo not shown) [Example 2(60), 1-methyl-3-isopropyl-7-(3-methyl-2-buten-1-yl)-8-(3-amino-piperidin-1-yl)-xanthine], for which the melting point is 115 to 117 °C.

On to `CC(C)=CCn1c(N2CCC[C@H](N)C2)nc2c1c(=O)n(CCC(=O)O)c(=O)n2C` [Example 6(4), 1-(2-carboxy-ethyl)-3-methyl-7-(3-methyl-2-buten-1-yl)-8-((S)-3-amino-piperidin-1-yl)-xanthine], for which the melting point fell in the range of 226 to 228 °C.

Consider `CC(C)=CCn1c(N2CCCC(N)(C(=O)N3CCCC3)C2)nc2c1c(=O)n(C)c(=O)n2C` (stereo not shown) (as salt: sodium) [Example 1(139), 1,3-dimethyl-7-(3-methyl-2-buten-1-yl)-8-[3-amino-3-(pyrrolidin-1-ylcarbonyl)-piperidin-1-yl]-xanthine], for which the melting point is 159 to 160 °C.

Turning to `Cn1c(=O)c2c(nc(N3CCC(N)C3)n2Cc2ccccc2)n(C)c1=O` (stereo not shown) [Example 1, 1,3-dimethyl-7-benzyl-8-(3-amino-pyrrolidin-1-yl)-xanthine], the melting point was 150 °C.

On to `CN[C@H]1CCCC[C@H]1Nc1nc2c(c(=O)n(C)c(=O)n2C)n1CC=C(C)C` (relative stereo) [Example 1(77), 1,3-dimethyl-7-(3-methyl-2-buten-1-yl)-8-[cis-(2-methylamino-cyclohexyl)amino]-xanthine], for which the melting point fell in the range of 172.5 to 175 °C.

Turning to `CC(C)=CCn1c(N2CCCC(N)C2)nc2c1c(=O)n(CCc1ccc(Cl)cc1Cl)c(=O)n2C` (stereo not shown) [Example 1(37), 1-[2-(2,4-dichloro-phenyl)-ethyl]-3-methyl-7-(3-methyl-2-buten-1-yl)-8-(3-amino-piperidin-1-yl)-xanthine], the melting point was in the range of 130 to 132 °C.

Compound `CC(C)=CCn1c(N2CCCC(N)C2)nc2c1c(=O)n(CCc1c(C)cc(C)cc1C)c(=O)n2C` (stereo not shown) [Example 1(36), 1-[2-(2,4,6-trimethyl-phenyl)-ethyl]-3-methyl-7-(3-methyl-2-buten-1-yl)-8-(3-amino-piperidin-1-yl)-xanthine] displayed a melting point of 153 to 154.5 °C.

On to `COC(=O)Cn1c(=O)c2c(nc(N3CCC[C@H](N)C3)n2CC=C(C)C)n(C)c1=O` [Example 2(19), 1-[(methoxycarbonyl)-methyl]-3-methyl-7-(3-methyl-2-buten-1-yl)-8-((S)-3-amino-piperidin-1-yl)-xanthine], for which the melting point is 102 to 105 °C.

With `CC(C)=CCn1c(N2CCCC(N)C2)nc2c1c(=O)n(CCc1ccc(C)cc1)c(=O)n2C` (stereo not shown) [Example 1(100), 1-[2-(4-methyl-phenyl)-ethyl]-3-methyl-7-(3-methyl-2-buten-1-yl)-8-(3-amino-piperidin-1-yl)-xanthine], the melting point fell in the range of 129 to 130.2 °C.

As for `CC(C)=CCn1c(NC[C@@H](C)N)nc2c1c(=O)n(C)c(=O)n2C` [Example 1(135), 1,3-dimethyl-7-(3-methyl-2-buten-1-yl)-8-((R)-2-amino-propylamino)-xanthine], the melting point fell in the range of 141 to 144 °C.

In turn, `CC(C)=CCn1c(N2CCCC(N)C2)nc2c1c(=O)n(C)c(=O)n2CCC#N` (stereo not shown) [Example 2(62), 1-methyl-3-(2-cyano-ethyl)-7-(3-methyl-2-buten-1-yl)-8-(3-amino-piperidin-1-yl)-xanthine] came in with a melting point of 146 to 149 °C.

In the case of `CC(C)=CCn1c(N2CCCC(N)C2)nc2c1c(=O)n(CCc1cccc([N+](=O)[O-])c1)c(=O)n2C` (stereo not shown) [Example 1(99), 1-[2-(3-nitro-phenyl)-ethyl]-3-methyl-7-(3-methyl-2-buten-1-yl)-8-(3-amino-piperidin-1-yl)-xanthine], the melting point fell in the range of 120.8 to 122 °C.

`Cn1c(=O)c2c(nc(N3CCCC(N)C3)n2C)n(C)c1=O` (stereo not shown) [Example 1(115), 1,3,7-trimethyl-8-(3-amino-piperidin-1-yl)-xanthine] registered a melting point of 147 °C.

Compound `CC(C)=CCn1c(N2CCCC(N)C2)nc2c1c(=O)n(CCc1ccccc1)c(=O)n2CC(=O)O` (stereo not shown) [Example 6(5), 1-(2-phenyl-ethyl)-3-carboxymethyl-7-(3-methyl-2-buten-1-yl)-8-(3-amino-piperidin-1-yl)-xanthine] displayed a melting point of 228 to 235 °C.

The compound `CC(C)=CCn1c(N2CCC(N)C2)nc2c1c(=O)n(C)c(=O)n2C` (stereo not shown) [Example 1(1), 1,3-dimethyl-7-(3-methyl-2-buten-1-yl)-8-(3-amino-pyrrolidin-1-yl)-xanthine] yielded a melting point of 119 °C.

Regarding `CCOC(=O)c1ccc(CCn2c(=O)c3c(nc(N4CCC[C@H](N)C4)n3CC=C(C)C)n(C)c2=O)cc1` [Example 2(21), 1-{2-[4-(ethoxycarbonyl)-phenyl]-ethyl}-3-methyl-7-(3-methyl-2-buten-1-yl)-8-((S)-3-amino-piperidin-1-yl)-xanthine], the melting point lay within 142 to 144 °C.

Regarding `CC(C)=CCn1c(N2CCCC(N)C2)nc2c1c(=O)n(CCc1cc(F)cc(F)c1)c(=O)n2C` (stereo not shown) [Example 2(36), 1-[2-(3,5-difluoro-phenyl)-ethyl]-3-methyl-7-(3-methyl-2-buten-1-yl)-8-(3-amino-piperidin-1-yl)-xanthine], the melting point was 162 to 163.5 °C.

In turn, `COc1cccc(CCn2c(=O)c3c(nc(N4CCCC(N)C4)n3CC=C(C)C)n(C)c2=O)c1` (stereo not shown) [Example 1(86), 1-[2-(3-methoxy-phenyl)-ethyl]-3-methyl-7-(3-methyl-2-buten-1-yl)-8-(3-amino-piperidin-1-yl)-xanthine] registered a melting point of 118.5 to 119.5 °C.

In the case of `CC(C)=CCn1c(NCC(C)(C)N)nc2c1c(=O)n(C)c(=O)n2C` [Example 1(134), 1,3-dimethyl-7-(3-methyl-2-buten-1-yl)-8-(2-amino-2-methyl-propylamino)-xanthine], the melting point was 140.5 to 143 °C.

The compound `CC(C)=CCn1c(N2CCC[C@H]2CN)nc2c1c(=O)n(C)c(=O)n2C` [Example 1(76), 1,3-dimethyl-7-(3-methyl-2-buten-1-yl)-8-{(S)-[2-(aminomethyl)-pyrrolidin-1-yl]}-xanthine] had a melting point of 112 to 115 °C.

Turning to `CC(C)=CCn1c(N2CCCC(N)C2)nc2c1c(=O)n(CCc1cccc(Br)c1)c(=O)n2C` (stereo not shown) [Example 1(87), 1-[2-(3-bromo-phenyl)-ethyl]-3-methyl-7-(3-methyl-2-buten-1-yl)-8-(3-amino-piperidin-1-yl)-xanthine], the melting point was in the range of 116.5 to 117.5 °C.

Turning to `CC(C)=CCn1c(N(C)CC(N)C(=O)N2CCCC2)nc2c1c(=O)n(C)c(=O)n2C` (stereo not shown) [Example 2(142), 1,3-dimethyl-7-(3-methyl-2-buten-1-yl)-8-{N-[2-amino-3-oxo-3-(pyrrolidin-1-yl)-propyl]-N-methyl-amino}-xanthine], the melting point was 138 °C.

Values taken from US20130165428A1, “XANTHINE DERIVATIVES, THE PREPARATION THEREOF AND THEIR USE AS PHARMACEUTICAL COMPOSITIONS” (Boehringer Ingelheim Pharma GmbH & Co. KG, priority 2001, published 2013).
